# Test system: acetylated microtubule in HEK293T cells
# Assay: Microtubule-Stabilizing Activity Assay (acetylated microtubule immunoblot, HEK293T, colchicine challenge)
# Type: cell-based
# Details: 1 h pre-incubation, then colchicine 1 μM 3 h, relative to CNDR-51657 at 500 nM = 1.00; for Microtubule-Stabilizing Activity 50 nM: compound 50 nM; for Microtubule-Stabilizing Activity 500 nM: compound 500 nM
# Description: Compound solvent: 100% dimethyl sulfoxide (DMSO). Cell line: HEK293T (ATCC, CRL3216). Culture conditions: Cells were cultured in Dulbecco's Modified Eagle's Medium (DMEM) containing 10% fetal bovine serum and 1% penicillin/streptomycin. Cells were cultured at 37° C. in a Thermo-Fisher incubator with a humidified atmosphere of 5% carbon dioxide.
# One day prior to the experiment, 100,000 cells were seeded at a density of 200,000 cells/ml in a 24-well plate.
# On the day of the experiment, 20 μl of PBS phosphate buffer containing the test compound at experimental concentrations or an equivalent volume of DMSO was added to each well. After incubating at 37° C. for 1 hour, colchicine was added to each well at a final concentration of 1 μM, followed by an additional 3-hour incubation at 37° C. The plate was then placed on ice. The medium in each well was removed, and the cells were washed with ice-cold PBS. After aspirating the PBS, 0.1 mL of ice-cold RIPA lysis buffer (containing 0.5% sodium deoxycholate, 0.1% SDS, 1% NP-40, 5 mM EDTA, pH 8.0) was quickly added. Prior to use, a commercial protease inhibitor cocktail (1:500) and 1 μM deacetylase inhibitor Trichostatin A (Sangon Biotech Co., Ltd.) were added to the cell lysis buffer. The cell lysate were transferred to a 1.5 ml centrifuge tube, sonicated, and centrifuged at 13,000 rpm for 10 minutes. The supernatant was collected, and protein concentration was determined using the BCA assay.
# Based on existing literature (Black, 1989; Kurt, 2011), acetylated microtubule was used as an indicator of microtubule polymerization to assess the microtubule-stabilizing efficacy of the compounds. HEK293T cell lysates were analyzed by SDS-PAGE (7.5% gel) and immunoblotted using acetylated microtubule antibody (1:20,000, Sigma-Aldrich, T7451) and α-microtubule antibody (1:2,000, Proteintech, 11224-1-AP). After incubation with fluorescent dye-conjugated IgG (1:40,000, Licor), the blots were visualized using an Odyssey-Dlx imaging system. Grayscale analysis was performed using ImageJ.
# The compound activity was quantified with the microtubule-stabilizing activity of CNDR-51657 (C5) (Jane, 2016) at 500 nM as 1.00.
molecule,measurement,value
"6-(4-(((1R,5S,6r)-3-Azabicyclo[3.1.0]hexan-6-yl)methoxy)-2,6-difluorophenyl)-5-methyl-N-(2,2,2-trifluoroethyl)-[1,2,4]triazolo[1,5-a]pyrimidin-7-amine [Example 35]",Microtubule-Stabilizing Activity 50 nM,0.87
same,Microtubule-Stabilizing Activity 500 nM,1.80
"CC(C)[C@@H](C)Nc1c(-c2c(F)cc(OC3CC4(CNC4)C3)cc2F)c(Cl)nc2ncnn12 [Example 1, (R)-6-(4-((2-azaspiro[3.3]hept-6-yl)oxy)-2,6-difluorophenyl)-5-chloro-N-(3-methylbut-2-yl)-[1,2,4]triazolo[1,5-a]pyrimidin-7-amine]",Microtubule-Stabilizing Activity 50 nM,0.36
same,Microtubule-Stabilizing Activity 500 nM,0.71
"CC(C)[C@@H](C)Nc1c(-c2c(F)cc(OC3CC4(C3)CN(C)C4)cc2F)c(Cl)nc2ncnn12 [Example 2, (R)-6-(4-((2-methyl-2-azaspiro[3.3]hept-6-yl)oxy)-2,6-difluorophenyl)-5-chloro-N-(3-methylbut-2-yl)-[1,2,4]triazolo[1,5-a]pyrimidin-7-amine]",Microtubule-Stabilizing Activity 50 nM,0.29
same,Microtubule-Stabilizing Activity 500 nM,0.71
"C[C@H](Nc1c(-c2c(F)cc(OC3CC4(CNC4)C3)cc2F)c(Cl)nc2ncnn12)C(F)(F)F [Example 3, (S)-6-(4-((2-Azaspiro[3.3]heptan-6-yl)oxy)-2,6-difluorophenyl)-5-chloro-N-(1,1,1-trifluoropropan-2-yl)-[1,2,4]triazolo[1,5-a]pyrimidin-7-amine]",Microtubule-Stabilizing Activity 50 nM,0.36
same,Microtubule-Stabilizing Activity 500 nM,0.49
"CC(C)[C@@H](C)Nc1c(-c2c(F)cc(OC3CC4(CCNCC4)C3)cc2F)c(Cl)nc2ncnn12 [Example 5, (R)-6-(4-((7-Azaspiro[3.5]nonan-2-yl)oxy)-2,6-difluorophenyl)-5-chloro-N-(3-methylbutan-2-yl)-[1,2,4]triazolo[1,5-a]pyrimidin-7-amine]",Microtubule-Stabilizing Activity 50 nM,0.41
same,Microtubule-Stabilizing Activity 500 nM,0.76
"CC(C)[C@@H](C)Nc1c(-c2c(F)cc(OC3CC4(CCN(C)CC4)C3)cc2F)c(Cl)nc2ncnn12 [Example 6, (R)-6-(4-((7-Methyl-7-azaspiro[3.5]nonan-2-yl)oxy)-2,6-difluorophenyl)-5-chloro-N-(3-methylbutan-2-yl)-[1,2,4]triazolo[1,5-a]pyrimidin-7-amine]",Microtubule-Stabilizing Activity 50 nM,0.25
same,Microtubule-Stabilizing Activity 500 nM,0.38
"C[C@H](Nc1c(-c2c(F)cc(OC3CC4(CCNCC4)C3)cc2F)c(Cl)nc2ncnn12)C(F)(F)F [Example 7, (S)-6-(4-((7-Azaspiro[3.5]nonan-2-yl)oxy)-2,6-difluorophenyl)-5-chloro-N-(1,1,1-trifluoropropan-2-yl)-[1,2,4]triazolo[1,5-a]pyrimidin-7-amine]",Microtubule-Stabilizing Activity 50 nM,0.42
same,Microtubule-Stabilizing Activity 500 nM,0.81
"C[C@H](Nc1c(-c2c(F)cc(OC3CC4(CCN(C)CC4)C3)cc2F)c(Cl)nc2ncnn12)C(F)(F)F [Example 8, (S)-6-(4-((7-Methyl-7-azaspiro[3.5]nonan-2-yl)oxy)-2,6-difluorophenyl)-5-chloro-N-(1,1,1-trifluoropropan-2-yl)-[1,2,4]triazolo[1,5-a]pyrimidin-7-amine]",Microtubule-Stabilizing Activity 50 nM,0.43
same,Microtubule-Stabilizing Activity 500 nM,0.31
"CNC1CC2(C1)CC(Oc1cc(F)c(-c3c(Cl)nc4ncnn4c3N[C@H](C)C(C)C)c(F)c1)C2 (stereo partly drawn) [Example 9, (R)-5-Chloro-6-(2,6-difluoro-4-((6-(methylamino)spiro[3.3]heptan-2-yl)oxy)phenyl)-N-(3-methylbutan-2-yl)-[1,2,4]triazolo[1,5-a]pyrimidin-7-amine]",Microtubule-Stabilizing Activity 50 nM,0.53
same,Microtubule-Stabilizing Activity 500 nM,1.74
"CC(C)[C@@H](C)Nc1c(-c2c(F)cc(OC3CC4(C3)CC(N(C)C)C4)cc2F)c(Cl)nc2ncnn12 (stereo partly drawn) [Example 10, (R)-5-Chloro-6-(4-((6-(dimethylamino)spiro[3.3]heptan-2-yl)oxy)-2,6-difluorophenyl)-N-(3-methylbutan-2-yl)-[1,2,4]triazolo[1,5-a]pyrimidin-7-amine]",Microtubule-Stabilizing Activity 50 nM,0.26
same,Microtubule-Stabilizing Activity 500 nM,0.28
"C[C@H](Nc1c(-c2c(F)cc(OC3CC4(C3)CC(N(C)C)C4)cc2F)c(Cl)nc2ncnn12)C(F)(F)F (stereo partly drawn) [Example 12, (S)-5-chloro-6-(4-((6-(dimethylamino)spiro[3.3]heptan-2-yl)oxy)-2,6-difluorophenyl)-N-(1,1,1-trifluoropropan-2-yl)-[1,2,4]triazolo[1,5-a]pyrimidin-7-amine]",Microtubule-Stabilizing Activity 50 nM,0.30
same,Microtubule-Stabilizing Activity 500 nM,0.78
"CNC1CC2(C1)CC(Oc1cc(F)c(-c3c(Cl)nc4ncnn4c3N[C@H](C)C3CCC3)c(F)c1)C2 (stereo partly drawn) [Example 13, (R)-5-chloro-N-(1-cyclobutylethyl)-6-(2,6-difluoro-4-((6-(methylamino)spiro[3.3]heptan-2-yl)oxy)phenyl)-[1,2,4]triazolo[1,5-a]pyrimidin-7-amine]",Microtubule-Stabilizing Activity 50 nM,0.35
same,Microtubule-Stabilizing Activity 500 nM,1.39
"C[C@@H](Nc1c(-c2c(F)cc(OC3CC4(C3)CC(N(C)C)C4)cc2F)c(Cl)nc2ncnn12)C1CCC1 (stereo partly drawn) [Example 14, (R)-5-Chloro-N-(1-cyclobutylethyl)-6-(4-((6-(dimethylamino)spiro[3.3]heptan-2-yl)oxy)-2,6-difluorophenyl)-[1,2,4]triazolo[1,5-a]pyrimidin-7-amine]",Microtubule-Stabilizing Activity 50 nM,0.23
same,Microtubule-Stabilizing Activity 500 nM,1.98
"CNC1CC2(C1)CC(Oc1cc(F)c(-c3c(Cl)nc4ncnn4c3NCC(F)(F)F)c(F)c1)C2 (centres unmarked) [Example 15, 5-Chloro-6-(2,6-difluoro-4-((6-(methylamino)spiro[3.3]heptan-2-yl)oxy)phenyl)-N-(2,2,2-trifluoroethyl)-[1,2,4]triazolo[1,5-a]pyrimidin-7-amine]",Microtubule-Stabilizing Activity 50 nM,0.15
same,Microtubule-Stabilizing Activity 500 nM,1.60
CN(C)C1CC2(CC(Oc3cc(F)c(-c4c(Cl)nc5ncnn5c4NCC(F)(F)F)c(F)c3)C2)C1 (centres unmarked) [Example 16],Microtubule-Stabilizing Activity 50 nM,0.07
same,Microtubule-Stabilizing Activity 500 nM,1.66
"CNC1CCC2(CC1)CC(Oc1cc(F)c(-c3c(Cl)nc4ncnn4c3N[C@H](C)C(C)C)c(F)c1)C2 (stereo partly drawn) [Example 17, (R)-5-Chloro-6-(2,6-difluoro-4-((7-(methylamino)spiro[3.5]nonan-2-yl)oxy)phenyl)-N-(3-methylbutan-2-yl)-[1,2,4]triazolo[1,5-a]pyrimidin-7-amine]",Microtubule-Stabilizing Activity 50 nM,0.21
same,Microtubule-Stabilizing Activity 500 nM,0.89
"CC(C)[C@@H](C)Nc1c(-c2c(F)cc(OC3CC4(CCC(N(C)C)CC4)C3)cc2F)c(Cl)nc2ncnn12 (stereo partly drawn) [Example 18, (R)-5-Chloro-6-(2,6-difluoro-4-((7-(dimethylamino)spiro[3.5]nonan-2-yl)oxy)phenyl)-N-(3-methylbutan-2-yl)-[1,2,4]triazolo[1,5-a]pyrimidin-7-amine]",Microtubule-Stabilizing Activity 50 nM,0.07
same,Microtubule-Stabilizing Activity 500 nM,0.68
"CNC1CCC2(CC1)CC(Oc1cc(F)c(-c3c(Cl)nc4ncnn4c3N[C@@H](C)C(F)(F)F)c(F)c1)C2 (stereo partly drawn) [Example 19, (S)-5-Chloro-6-(2,6-difluoro-4-((7-(methylamino)spiro[3.5]nonan-2-yl)oxy)phenyl)-N-(1,1,1-trifluoropropan-2-yl)-[1,2,4]triazolo[1,5-a]pyrimidin-7-amine]",Microtubule-Stabilizing Activity 50 nM,0.16
same,Microtubule-Stabilizing Activity 500 nM,0.62
"C[C@H](Nc1c(-c2c(F)cc(OC3CC4(CCC(N(C)C)CC4)C3)cc2F)c(Cl)nc2ncnn12)C(F)(F)F (stereo partly drawn) [Example 20, (S)-5-Chloro-6-(2,6-difluoro-4-((7-(dimethylamino)spiro[3.5]nonan-2-yl)oxy)phenyl)-N-(1,1,1-trifluoropropan-2-yl)-[1,2,4]triazolo[1,5-a]pyrimidin-7-amine]",Microtubule-Stabilizing Activity 50 nM,0.05
same,Microtubule-Stabilizing Activity 500 nM,1.32
